Literature values, collected in patent US11304898B2, “Method of treating carcinoma” (SUN PHARMA ADVANCED RESEARCH COMPANY LTD, priority 2015, dated 2022).

Experiments:
bile tract cancer [1] = settings: Phase II studies, bile tract cancer patients
bile tract cancer [2] = settings: EORTC study

SMILES | achieved response rate (bile tract cancer [1]) | objective response rate (bile tract cancer [2]) [%]
O=c1[nH]cc(F)c(=O)[nH]1 [Example 5-FU, 5-Fluorouracil] | less than 20% | 
CO[C@@]12[C@H](COC(N)=O)C3=C(C(=O)C(C)=C(N)C3=O)N1C[C@@H]1N[C@@H]12 [Mit-C, mitomycin-C] |  | 10
